Values after ≈ are worked out from the molar mass of the structure shown.
Key:
[1] = test system: Neisseria gonorrhoeae; assay: Antibacterial activity against resistant Neisseria gonorrhoeae assessed inhibition of bacterial growth; assay type: functional
[2] = test system: Staphylococcus aureus; assay: Antibacterial activity against Staphylococcus aureus assessed inhibition of bacterial growth; assay type: functional

Structure (SMILES) | MIC50 [1] [µg/mL] | MIC90 [1] [µg/mL] | MIC50 [2] [µg/mL] | MIC90 [2] [µg/mL]
CCCn1cnc(C(=O)Nc2c(O)c3ccc(O[C@@H]4OC(C)(C)[C@H](OC)[C@@H](OC(=O)c5ccc(C)[nH]5)[C@H]4O)c(C)c3oc2=O)c1 | 1 (≈ 1.6 µM) | 1 (≈ 1.6 µM) | 0.5 (≈ 0.8 µM) | 0.5 (≈ 0.8 µM)
CO/N=C(\C(=O)N[C@@H]1C(=O)N2C(C(=O)O)=C(CSc3nc(=O)c(O)nn3C)CS[C@H]12)c1csc(N)n1 [CEFTRIAXONE] | 0.008 (≈ 0.0144 µM) | 0.25 (≈ 0.451 µM) | 1 (≈ 1.8 µM) | > 128
CO[C@@H]1[C@@H](OC(=O)NOCC(C)C)[C@@H](O)[C@H](Oc2ccc3c(O)c(NC(=O)c4ccc(O)c(CC=C(C)C)c4)c(=O)oc3c2C)OC1(C)C | 4 (≈ 5.84 µM) | 16 (≈ 23.4 µM) | 0.5 (≈ 0.73 µM) | 1 (≈ 1.46 µM)
CO[C@@H]1[C@@H](OC(=O)c2ccc(C)[nH]2)[C@@H](O)[C@H](Oc2ccc3c(O)c(NC(=O)c4ccccc4)c(=O)oc3c2C)OC1(C)C | 1 (≈ 1.69 µM) | 1 (≈ 1.69 µM) | 0.063 (≈ 0.106 µM) | 0.125 (≈ 0.211 µM)
CO[C@@H]1[C@@H](OC(=O)c2ccc(C)[nH]2)[C@@H](O)[C@H](Oc2ccc3c(O)c(NC(=O)c4c[nH]cn4)c(=O)oc3c2C)OC1(C)C | 1 (≈ 1.72 µM) | 1 (≈ 1.72 µM) | 1 (≈ 1.72 µM) | 1 (≈ 1.72 µM)
CO[C@@H]1[C@@H](OC(=O)c2ccc(C)[nH]2)[C@@H](O)[C@H](Oc2ccc3c(O)c(NC(=O)c4ccnc(Oc5cccnc5)c4)c(=O)oc3c2C)OC1(C)C | 0.5 (≈ 0.728 µM) | 1 (≈ 1.46 µM) | 0.5 (≈ 0.728 µM) | 1 (≈ 1.46 µM)
CCc1cc(C(=O)Nc2c(O)c3ccc(O[C@@H]4OC(C)(C)[C@H](OC)[C@@H](OC(=O)c5ccc(C)[nH]5)[C@H]4O)c(C)c3oc2=O)ccn1 | 0.5 (≈ 0.804 µM) | 1 (≈ 1.61 µM) | 0.5 (≈ 0.804 µM) | 1 (≈ 1.61 µM)
CO[C@@H]1[C@H](NC(=O)c2ccc(C)[nH]2)[C@@H](O)[C@H](Oc2ccc3c(O)c(NC(=O)c4ccc(O)c(CC=C(C)C)c4)c(=O)oc3c2C)OC1(C)C | 64 (≈ 94.7 µM) | > 64 | > 128 | > 128
CO[C@@H]1[C@@H](OC(=O)c2[nH]c(C)cc2C)[C@@H](O)[C@H](Oc2ccc3c(O)c(NC(=O)c4ccc(O)c(CC=C(C)C)c4)c(=O)oc3c2C)OC1(C)C | 0.25 (≈ 0.362 µM) | 0.25 (≈ 0.362 µM) | 0.063 (≈ 0.0912 µM) | 0.125 (≈ 0.181 µM)
CO[C@@H]1[C@@H](OC(N)=O)[C@@H](O)[C@H](Oc2ccc3c(O)c(NC(=O)c4ccc(O)c(CC=C(C)C)c4)c(=O)oc3c2C)OC1(C)C [NOVOBIOCIN] | 1 (≈ 1.63 µM) | 2 (≈ 3.26 µM) | 0.25 (≈ 0.408 µM) | 0.25 (≈ 0.408 µM)
CO[C@@H]1[C@@H](OC(=O)NOC(C)(C)C)[C@@H](O)[C@H](Oc2ccc3c(O)c(NC(=O)c4ccc(O)c(CC=C(C)C)c4)c(=O)oc3c2C)OC1(C)C | 16 (≈ 23.4 µM) | 64 (≈ 93.5 µM) | 1 (≈ 1.46 µM) | 1 (≈ 1.46 µM)
CO[C@@H]1[C@@H](OC(=O)c2ccc(C)[nH]2)[C@@H](O)[C@H](Oc2ccc3c(O)c(NC(=O)c4cn(C)c(CCC(C)C)n4)c(=O)oc3c2C)OC1(C)C | 0.5 (≈ 0.75 µM) | 1 (≈ 1.5 µM) | 0.25 (≈ 0.375 µM) | 0.25 (≈ 0.375 µM)
CO[C@@H]1[C@@H](OC(=O)c2ccc(C)[nH]2)[C@@H](O)[C@H](Oc2ccc3c(O)c(NC(=O)c4cncn4C)c(=O)oc3c2C)OC1(C)C | 0.5 (≈ 0.838 µM) | 1 (≈ 1.68 µM) | 0.5 (≈ 0.838 µM) | 0.5 (≈ 0.838 µM)
CO[C@@H]1[C@@H](OC(=O)c2ccc(C)[nH]2)[C@@H](O)[C@H](Oc2ccc3c(O)c(NC(=O)c4sc5nccn5c4C)c(=O)oc3c2C)OC1(C)C | 0.5 (≈ 0.766 µM) | 0.5 (≈ 0.766 µM) | 0.5 (≈ 0.766 µM) | 1 (≈ 1.53 µM)
C#CCCNC(=O)O[C@H]1[C@@H](O)[C@H](Oc2ccc3c(O)c(NC(=O)c4ccc(O)c(CC=C(C)C)c4)c(=O)oc3c2C)OC(C)(C)[C@@H]1OC | 16 (≈ 24.1 µM) | 32 (≈ 48.1 µM) | 0.5 (≈ 0.752 µM) | 0.5 (≈ 0.752 µM)
CO[C@@H]1[C@@H](NC(=O)c2ccc(C)[nH]2)[C@@H](O)[C@H](Oc2ccc3c(O)c(NC(=O)c4ccc(O)c(CC=C(C)C)c4)c(=O)oc3c2C)OC1(C)C | 32 (≈ 47.4 µM) | 64 (≈ 94.7 µM) | 2 (≈ 2.96 µM) | 2 (≈ 2.96 µM)

Structure (SMILES) | MIC50 [1] [µg/mL] | MIC90 [1] [µg/mL] | MIC50 [2] [µg/mL] | MIC90 [2] [µg/mL]
CO[C@@H]1[C@@H](OC(=O)c2ccc(C)[nH]2)[C@@H](O)[C@H](Oc2ccc3c(O)c(NC(=O)c4c(C)ncn4CC=C(C)C)c(=O)oc3c2C)OC1(C)C | 0.5 (≈ 0.752 µM) | 0.5 (≈ 0.752 µM) | 0.5 (≈ 0.752 µM) | 0.5 (≈ 0.752 µM)
CO[C@@H]1[C@@H](OC(=O)c2ccc(C)[nH]2)[C@@H](O)[C@H](Oc2ccc3c(O)c(NC(=O)c4cn(Cc5cccc(C(F)(F)F)c5)cn4)c(=O)oc3c2C)OC1(C)C | 0.25 (≈ 0.338 µM) | 0.5 (≈ 0.675 µM) | 0.125 (≈ 0.169 µM) | 0.25 (≈ 0.338 µM)
CO[C@@H]1[C@@H](OC(=O)c2ccc[nH]2)[C@@H](O)[C@H](Oc2ccc3c(O)c(NC(=O)c4ccc(O)c(CC=C(C)C)c4)c(=O)oc3c2C)OC1(C)C | 0.5 (≈ 0.754 µM) | 1 (≈ 1.51 µM) | 0.125 (≈ 0.189 µM) | 0.25 (≈ 0.377 µM)
CO[C@@H]1[C@@H](OC(=O)c2ccc(C)[nH]2)[C@@H](O)[C@H](Oc2ccc3c(O)c(NC(=O)Cn4c(-c5ccccn5)nc5ccccc54)c(=O)oc3c2C)OC1(C)C | 0.5 (≈ 0.691 µM) | 0.5 (≈ 0.691 µM) | 0.25 (≈ 0.345 µM) | 0.5 (≈ 0.691 µM)
CO[C@@H]1[C@@H](OC(=O)c2ccc(C)[nH]2)[C@@H](O)[C@H](Oc2ccc3c(O)c(NC(=O)c4ccncc4)c(=O)oc3c2C)OC1(C)C | 1 (≈ 1.68 µM) | 1 (≈ 1.68 µM) | 4 (≈ 6.74 µM) | 8 (≈ 13.5 µM)
C=Cc1cc(C(=O)Nc2c(O)c3ccc(O[C@@H]4OC(C)(C)[C@H](OC)[C@@H](OC(=O)c5ccc(C)[nH]5)[C@H]4O)c(C)c3oc2=O)ccn1 | 0.5 (≈ 0.807 µM) | 0.5 (≈ 0.807 µM) | 0.5 (≈ 0.807 µM) | 1 (≈ 1.61 µM)
CO[C@@H]1[C@@H](OC(=O)c2ccc(C)[nH]2)[C@@H](O)[C@H](Oc2ccc3c(O)c(NC(=O)c4ccnc(N(C)C)c4)c(=O)oc3c2C)OC1(C)C | 0.5 (≈ 0.785 µM) | 0.5 (≈ 0.785 µM) | 0.5 (≈ 0.785 µM) | 0.5 (≈ 0.785 µM)
CC[C@H]1OC(=O)[C@H](C)[C@@H](O[C@H]2C[C@@](C)(OC)[C@@H](O)[C@H](C)O2)[C@H](C)[C@@H](O[C@@H]2O[C@H](C)C[C@H](N(C)C)[C@H]2O)[C@](C)(O)C[C@@H](C)CN(C)[C@H](C)[C@@H](O)[C@]1(C)O [AZITHROMYCIN] | 0.25 (≈ 0.334 µM) | 8 (≈ 10.7 µM) | > 128 | > 128
C=CCONC(=O)O[C@H]1[C@@H](O)[C@H](Oc2ccc3c(O)c(NC(=O)c4ccc(O)c(CC=C(C)C)c4)c(=O)oc3c2C)OC(C)(C)[C@@H]1OC | 1 (≈ 1.5 µM) | 2 (≈ 2.99 µM) | 0.125 (≈ 0.187 µM) | 0.25 (≈ 0.374 µM)
CO[C@@H]1[C@@H](OC(=O)c2ccc(C)[nH]2)[C@@H](O)[C@H](Oc2ccc3c(O)c(NC(=O)c4cccc(N5CCN(C)CC5)c4)c(=O)oc3c2C)OC1(C)C | 1 (≈ 1.45 µM) | 1 (≈ 1.45 µM) | 0.5 (≈ 0.724 µM) | 0.5 (≈ 0.724 µM)
CO[C@@H]1[C@@H](OC(=O)c2ccc(C)[nH]2)[C@@H](O)[C@H](Oc2ccc3c(O)c(NC(=O)c4cscn4)c(=O)oc3c2C)OC1(C)C | 0.5 (≈ 0.834 µM) | 0.5 (≈ 0.834 µM) | 0.5 (≈ 0.834 µM) | 0.5 (≈ 0.834 µM)
CO[C@@H]1[C@@H](OC(=O)c2ccc(C)[nH]2)[C@@H](O)[C@H](Oc2ccc3c(O)c(NC(=O)c4csc(C)n4)c(=O)oc3c2C)OC1(C)C | 0.25 (≈ 0.407 µM) | 0.5 (≈ 0.815 µM) | 0.25 (≈ 0.407 µM) | 0.25 (≈ 0.407 µM)
CO[C@@H]1[C@@H](OC(=O)c2ccc(C)[nH]2)[C@@H](O)[C@H](Oc2ccc3c(O)c(NC(=O)c4cn(CC5CC5)cn4)c(=O)oc3c2C)OC1(C)C | 0.5 (≈ 0.785 µM) | 1 (≈ 1.57 µM) | 0.5 (≈ 0.785 µM) | 0.5 (≈ 0.785 µM)
CO[C@@H]1[C@@H](OC(=O)c2ccc(C)[nH]2)[C@@H](O)[C@H](Oc2ccc3c(O)c(NC(=O)c4ccnc(N)c4)c(=O)oc3c2C)OC1(C)C | 0.5 (≈ 0.822 µM) | 1 (≈ 1.64 µM) | 2 (≈ 3.29 µM) | 2 (≈ 3.29 µM)
CO[C@@H]1[C@@H](OC(=O)c2cc(Cl)c(C)[nH]2)[C@@H](O)[C@H](Oc2ccc3c(O)c(NC(=O)c4ccc(O)c(CC=C(C)C)c4)c(=O)oc3c2C)OC1(C)C | 0.5 (≈ 0.703 µM) | 1 (≈ 1.41 µM) | 0.063 (≈ 0.0886 µM) | 0.125 (≈ 0.176 µM)
CO[C@@H]1[C@@H](OC(=O)c2ccc(C)[nH]2)[C@@H](O)[C@H](Oc2ccc3c(O)c(NC(=O)c4cn(Cc5ccccn5)cn4)c(=O)oc3c2C)OC1(C)C | 0.5 (≈ 0.742 µM) | 0.5 (≈ 0.742 µM) | 0.25 (≈ 0.371 µM) | 0.5 (≈ 0.742 µM)
